{"source": "patent US20120329739A1", "about": "(priority 2010, published 2012)", "key": {"[1]": {"tested_on": "hair graying-induced mice (Mitf^mi-vit)", "conditions": "mouse, in vivo"}, "melan-A melanocytes": {"tested_on": "melan-A melanocytes", "format": "cell-based"}}, "data": [{"molecule": "O=c1c(-c2ccc(O)cc2)coc2c([C@@H]3O[C@H](CO)[C@@H](O)[C@H](O)[C@H]3O)c(O)ccc12", "note": "[puerarin, 8-C-β-D-glucopyranosyl-7-hydroxy-3-(4-hydroxyphenyl)-4H-1-benzopyran-4-one]", "values": [{"measurement": "concentration dependence of the effect on hair melanin content", "setting": "[1]", "result": "the effect increases as the concentration of puerarin increases"}, {"measurement": "concentration dependence of melanin synthesis promoting effect", "setting": "melan-A melanocytes", "result": "concentration-dependent"}, {"measurement": "melanin content relative to the negative control group", "setting": "melan-A melanocytes", "result": "the melanin content is higher than the negative control group"}]}]}
